The values below come from BindingDB's records for doi:10.1210/endo.135.6.7988476 (Mcgill University, 1994).

In experiment [1] the target is Somatostatin receptor type 1 (Homo sapiens, UniProt P30872).
The target in experiment [2] is Somatostatin receptor type 3 (Homo sapiens, UniProt P32745).
The target of experiment [3] is Somatostatin receptor type 2 (Homo sapiens, UniProt P30874).
For experiment [4], the target named is Somatostatin receptor type 4 (Homo sapiens, UniProt P31391).

Bridge positions count the residues as written; N and C are the ends. Square brackets hold non-standard residues; d marks the D form. Peptide text beside a SMILES is read from it. * marks the point of attachment. NH(1-naphthylmethyl) = c1ccc2c(CN*)cccc2c1; Phe(4-Cl) = N[C@@H](Cc1ccc(Cl)cc1)C(=O)O; dPhe(4-Cl) = N[C@H](Cc1ccc(Cl)cc1)C(=O)O; 2Nal = N[C@@H](Cc1ccc2ccccc2c1)C(=O)O; d1Nal = N[C@H](Cc1cccc2ccccc12)C(=O)O; d2Nal = N[C@H](Cc1ccc2ccccc2c1)C(=O)O; Abu = CC[C@H](N)C(=O)O

What is called Ki is a dissociation constant, usually derived from enzyme kinetics or from competition with a known ligand. Low readings indicate tighter binding, high ones weaker binding.

Chain of Somatostatin receptor type 1 (P30872 whole entry): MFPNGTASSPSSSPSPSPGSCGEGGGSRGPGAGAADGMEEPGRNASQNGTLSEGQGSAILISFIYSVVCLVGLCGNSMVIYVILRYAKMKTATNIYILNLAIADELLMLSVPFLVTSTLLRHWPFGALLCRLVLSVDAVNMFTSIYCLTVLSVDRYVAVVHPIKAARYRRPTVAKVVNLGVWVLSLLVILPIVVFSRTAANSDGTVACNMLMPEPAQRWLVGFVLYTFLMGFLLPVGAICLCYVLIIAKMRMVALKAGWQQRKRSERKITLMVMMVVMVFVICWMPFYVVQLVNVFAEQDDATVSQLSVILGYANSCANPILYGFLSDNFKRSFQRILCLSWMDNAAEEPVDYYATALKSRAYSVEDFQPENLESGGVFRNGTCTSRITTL
Chain of Somatostatin receptor type 4 (P31391 whole entry): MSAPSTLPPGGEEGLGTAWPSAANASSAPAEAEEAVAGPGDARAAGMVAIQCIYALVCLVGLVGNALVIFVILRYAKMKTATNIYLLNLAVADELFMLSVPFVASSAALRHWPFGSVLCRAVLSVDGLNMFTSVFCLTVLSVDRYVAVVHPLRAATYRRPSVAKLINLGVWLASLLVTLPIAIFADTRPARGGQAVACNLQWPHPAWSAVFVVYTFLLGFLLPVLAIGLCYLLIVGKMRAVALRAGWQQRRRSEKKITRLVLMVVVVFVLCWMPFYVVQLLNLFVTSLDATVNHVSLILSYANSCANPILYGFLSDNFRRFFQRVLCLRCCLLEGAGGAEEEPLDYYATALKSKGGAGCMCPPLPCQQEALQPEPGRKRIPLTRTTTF
Chain of Somatostatin receptor type 2 (P30874 whole entry): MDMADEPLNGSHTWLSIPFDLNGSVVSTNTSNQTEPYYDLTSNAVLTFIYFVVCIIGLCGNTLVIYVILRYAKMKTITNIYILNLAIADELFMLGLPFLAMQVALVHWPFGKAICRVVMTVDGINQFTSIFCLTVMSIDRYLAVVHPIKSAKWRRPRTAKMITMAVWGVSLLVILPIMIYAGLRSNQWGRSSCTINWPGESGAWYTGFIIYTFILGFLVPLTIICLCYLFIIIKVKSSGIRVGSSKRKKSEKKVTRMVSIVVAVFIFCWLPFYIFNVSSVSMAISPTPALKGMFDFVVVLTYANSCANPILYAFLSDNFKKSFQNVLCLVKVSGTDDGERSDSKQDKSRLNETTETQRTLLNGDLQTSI
Chain of Somatostatin receptor type 3 (P32745 whole entry): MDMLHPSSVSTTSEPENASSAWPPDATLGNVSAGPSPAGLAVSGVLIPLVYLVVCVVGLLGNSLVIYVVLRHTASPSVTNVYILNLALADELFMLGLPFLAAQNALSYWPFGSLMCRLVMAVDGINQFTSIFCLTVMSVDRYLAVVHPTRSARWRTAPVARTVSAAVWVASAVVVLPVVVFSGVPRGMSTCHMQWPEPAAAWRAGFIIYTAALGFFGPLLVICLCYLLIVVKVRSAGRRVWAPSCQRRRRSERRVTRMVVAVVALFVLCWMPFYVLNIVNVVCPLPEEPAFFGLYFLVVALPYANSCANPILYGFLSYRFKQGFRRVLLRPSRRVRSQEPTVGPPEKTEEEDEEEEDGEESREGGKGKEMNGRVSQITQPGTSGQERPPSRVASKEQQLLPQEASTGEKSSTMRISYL

In the case of `CC(C)[C@@H]1NC(=O)[C@H](CCCCN)NC(=O)[C@@H](Cc2c[nH]c3ccccc23)NC(=O)[C@H](Cc2ccc(O)cc2)NC(=O)[C@@H](C)N(C)C(=O)[C@H](Cc2ccccc2)NC1=O`, the Ki stood at 107 nM in experiment [1] and 14.6 nM in experiment [2].

Turning to `CC(C)[C@@H]1NC(=O)[C@H](CCCCN)NC(=O)[C@@H](Cc2c[nH]c3ccccc23)NC(=O)[C@H](Cc2ccc(O)cc2)NC(=O)[C@@H](NC(=O)[C@H](N)Cc2ccc3ccccc3c2)CSSC[C@@H](C(=O)N[C@H](C(N)=O)[C@@H](C)O)NC1=O` [3-(2-Naphtyl)-D-Ala-L-Cys(1)-L-Tyr-D-Trp-L-Lys-L-Val-L-Cys(1)-L-Thr-NH2], the Ki is 1.8 nM in experiment [3] and 43 nM in experiment [2].

Take `CC1NC(=O)C(CCCCN)NC(=O)C(Cc2c[nH]c3ccccc23)NC(=O)C(Cc2ccc(O)cc2)NC(=O)C(NC(=O)C(N)Cc2ccccc2)CSSCC(C(=O)NCc2cccc3ccccc23)NC1=O` (stereo not drawn) [BIM 23034] (H-FCYWKAC-{NH(1-naphthylmethyl)}; disulfide 2-7; configuration not given here): the Ki in experiment [4] is 27 nM; in experiment [3] it was 2.7 nM; in experiment [2], 7.7 nM.

Consider `CC(C)[C@@H]1NC(=O)[C@H](CCCCN)NC(=O)[C@@H](Cc2c[nH]c3ccccc23)NC(=O)[C@H](Cc2ccc(O)cc2)NC(=O)[C@@H](NC(=O)[C@H](N)Cc2ccc3ccccc3c2)CSSC[C@@H](C(=O)N[C@@H](Cc2ccc3ccccc3c2)C(N)=O)NC1=O` [BIM 23042] (H-[d2Nal]CY[dW]KVC[2Nal]-NH2; disulfide 2-7), for which the inhibition constant (Ki) came to 1000 nM in experiment [4] and 0.24 nM in experiment [3].

For `C[C@H](NC(=O)[C@H](N)Cc1ccccc1)C(=O)N[C@@H](Cc1ccccc1)C(=O)N[C@H](Cc1c[nH]c2ccccc12)C(=O)N[C@@H](CCCCN)C(=O)N[C@H](C(=O)N[C@@H](C)C(=O)N[C@H](C(N)=O)[C@@H](C)O)[C@@H](C)O` [BIM 23051] (H-[dF]AF[dW]KTAT-NH2), the inhibition constant Ki in experiment [4] stood at 49 nM; in experiment [3] it was 1000 nM.

For `CC(C)[C@H](NC(=O)[C@H](CCCCN)NC(=O)[C@@H](Cc1c[nH]c2ccccc12)NC(=O)[C@H](Cc1ccc(O)cc1)NC(=O)[C@H](Cc1ccccc1)NC(=O)[C@H](N)Cc1ccccc1)C(=O)N[C@@H](Cc1ccccc1)C(=O)N[C@H](Cc1cccc2ccccc12)C(N)=O` [BIM 23056] (H-[dF]FY[dW]KVF[d1Nal]-NH2), the Ki in experiment [4] worked out at 16.6 nM; in experiment [3], 1000 nM; in experiment [1] it was 142 nM; in experiment [2], 10.8 nM.

With `CC(C)[C@H](NC(=O)[C@H](CCCCN)NC(=O)[C@@H](Cc1c[nH]c2ccccc12)NC(=O)[C@H](Cc1ccc(O)cc1)NC(=O)[C@H](Cc1ccc(Cl)cc1)NC(=O)[C@H](N)Cc1ccccc1)C(=O)N[C@@H](Cc1ccccc1)C(=O)N[C@H](C(N)=O)[C@@H](C)O` [BIM 23057] (H-[dF][Phe(4-Cl)]Y[dW]KVFT-NH2), the Ki in experiment [4] stood at 38.5 nM; in experiment [3] it was 1000 nM.

In the case of `CC(O)C1NC(=O)C(CCCCN)NC(=O)C(Cc2c[nH]c3ccccc23)NC(=O)C(Cc2ccc(O)cc2)NC(=O)C(NC(=O)C(N)Cc2ccccc2)CSSCC(C(=O)NCc2cccc3ccccc23)NC1=O` (stereo not drawn) [BIM 23060] (H-FCYWKTC-{NH(1-naphthylmethyl)}; disulfide 2-7; configuration not given here), the Ki in experiment [4] turned out to be 56 nM; in experiment [3] it was 0.71 nM; in experiment [1], 61 nM; in experiment [2], 14.6 nM.

Consider `CC[C@H](NC(=O)[C@@H](N)Cc1ccc(Cl)cc1)C(=O)N[C@@H](Cc1ccc(O)cc1)C(=O)N[C@H](Cc1c[nH]c2ccccc12)C(=O)N[C@@H](CCCCN)C(=O)N[C@H](C(=O)N[C@@H](C)C(=O)N[C@H](Cc1ccccc1)C(N)=O)C(C)C` [BIM 23067] (H-[Phe(4-Cl)][Abu]Y[dW]KVA[dF]-NH2), for which the Ki was found to be 1000 nM in experiment [4], 44.4 nM in experiment [3], 1000 nM in experiment [1] and 14.6 nM in experiment [2].

Regarding `C[C@@H](O)[C@H](NC(=O)[C@H](Cc1ccccc1)NC(=O)[C@@H](NC(=O)[C@H](CCCCN)NC(=O)[C@@H](Cc1c[nH]c2ccccc12)NC(=O)[C@H](Cc1ccc(O)cc1)NC(=O)[C@H](Cc1ccc(Cl)cc1)NC(=O)[C@H](N)Cc1ccccc1)[C@@H](C)O)C(N)=O` [BIM 23068] (H-[dF][Phe(4-Cl)]Y[dW]KTFT-NH2), the Ki turned out to be 9.8 nM in experiment [4], 1.55 nM in experiment [3] and 1.54 nM in experiment [2].

As for `CC(C)[C@H](NC(=O)[C@H](CCCCN)NC(=O)[C@@H](Cc1c[nH]c2ccccc12)NC(=O)[C@H](Cc1ccc(O)cc1)NC(=O)[C@H](Cc1ccccc1)NC(=O)[C@H](N)Cc1ccccc1)C(=O)N[C@@H](Cc1ccccc1)C(=O)N[C@H](C(N)=O)[C@@H](C)O` [BIM-23058] (H-[dF]FY[dW]KVFT-NH2), the inhibition constant Ki worked out at 8.3 nM in experiment [4], 9.8 nM in experiment [3], 115 nM in experiment [1] and 1.4 nM in experiment [2].

For the compound `CC(C)[C@@H]1NC(=O)[C@H](CCCCN)NC(=O)[C@@H](Cc2c[nH]c3ccccc23)NC(=O)[C@H](Cc2ccc(O)cc2)NC(=O)[C@@H](NC(=O)[C@H](N)Cc2ccccc2)CSSC[C@@H](C(=O)N[C@@H](Cc2c[nH]c3ccccc23)C(N)=O)NC1=O` [CAS_71306] (H-[dF]CY[dW]KVCW-NH2; disulfide 2-7), the inhibition constant (Ki) turned out to be 45 nM in experiment [4], 5.4 nM in experiment [3], 1000 nM in experiment [1] and 30.9 nM in experiment [2].

`C[C@@H](O)[C@H](NC(=O)[C@H](Cc1ccccc1)NC(=O)[C@@H](NC(=O)[C@H](CCCCN)NC(=O)[C@@H](Cc1c[nH]c2ccccc12)NC(=O)[C@H](Cc1ccccc1)NC(=O)[C@H](Cc1ccccc1)NC(=O)[C@H](N)Cc1ccccc1)[C@@H](C)O)C(N)=O` [CAS_133073-82-2] (H-[dF]FF[dW]KTFT-NH2): the Ki turned out to be 141 nM in experiment [4], 13.5 nM in experiment [3] and 31.3 nM in experiment [1].

As for `C[C@@H](O)[C@H](NC(=O)[C@H](Cc1ccccc1)NC(=O)[C@@H](NC(=O)[C@H](CCCCN)NC(=O)[C@@H](Cc1c[nH]c2ccccc12)NC(=O)[C@H](Cc1ccc(O)cc1)NC(=O)[C@H](Cc1ccc(Cl)cc1)NC(=O)[C@H](N)Cc1ccc2ccccc2c1)[C@@H](C)O)C(N)=O` [CAS_150155-63-8] (H-[d2Nal][Phe(4-Cl)]Y[dW]KTFT-NH2), the figures for the Ki in experiment [4] and in experiment [3] were 1000 nM and 26.2 nM, respectively.

`CC(C)[C@H](NC(=O)[C@H](CCCCN)NC(=O)[C@@H](Cc1c[nH]c2ccccc12)NC(=O)[C@H](Cc1ccc(O)cc1)NC(=O)[C@H](C)NC(=O)[C@H](N)Cc1ccc(Cl)cc1)C(=O)N[C@@H](C)C(=O)N[C@@H](Cc1ccc2ccccc2c1)C(N)=O` [CAS_150155-67-2] (H-[dPhe(4-Cl)]AY[dW]KVA[2Nal]-NH2): the figures for the inhibition constant (Ki) in experiment [4] and in experiment [3] were 1000 nM and 55.5 nM, respectively.

In the case of `CC(C)[C@H](NC(=O)[C@H](CCCCN)NC(=O)[C@@H](Cc1c[nH]c2ccccc12)NC(=O)[C@H](Cc1ccc(O)cc1)NC(=O)[C@H](C)NC(=O)[C@H](N)Cc1ccc2ccccc2c1)C(=O)N[C@@H](C)C(=O)N[C@H](C(N)=O)[C@@H](C)O` [D-Nal-Ala-Tyr-D-Trp-Lys-Val-Ala-Thr-NH2] (H-[d2Nal]AY[dW]KVAT-NH2), the values for the inhibitory constant (Ki) in experiment [4], in experiment [3] and in experiment [2] were 1000 nM, 5.9 nM and 13.1 nM, respectively.

As for `C[C@@H](O)[C@H](NC(=O)[C@@H]1CSSC[C@H](NC(=O)[C@H](N)Cc2ccc3ccccc3c2)C(=O)N[C@@H](Cc2ccc(O)cc2)C(=O)N[C@H](Cc2c[nH]c3ccccc23)C(=O)N[C@@H](CCCCN)C(=O)N[C@@H]([C@@H](C)O)C(=O)N1)C(N)=O` [D-Nal-c[Cys-Tyr-D-Trp-Lys-Thr-Cys]-Thr-NH2], the inhibition constant (Ki) in experiment [4] worked out at 58 nM; in experiment [3], 0.4 nM; in experiment [1], 41 nM; in experiment [2], 11.5 nM.

`CC[C@@H]1NC(=O)[C@H](CCCCN)NC(=O)[C@@H](Cc2c[nH]c3ccccc23)NC(=O)[C@H](Cc2ccc(O)cc2)NC(=O)[C@@H](NC(=O)[C@H](N)Cc2ccccc2)CSSC[C@@H](C(=O)N[C@@H](Cc2ccc3ccccc3c2)C(N)=O)NC1=O` [D-Phe-Cys-Tyr-D-Trp-Lys-Abu-Cys-Nal-NH] (H-[dF]CY[dW]K[Abu]C[2Nal]-NH2; disulfide 2-7): the Ki in experiment [4] was determined as 1000 nM; in experiment [3] it was 0.024 nM; in experiment [1], 1000 nM; in experiment [2], 0.09 nM.

For `CC[C@@H]1NC(=O)[C@H](CCCCN)NC(=O)[C@@H](Cc2c[nH]c3ccccc23)NC(=O)[C@H](Cc2ccc(O)cc2)NC(=O)[C@@H](NC(=O)[C@H](N)Cc2ccccc2)CSSC[C@@H](C(=O)N[C@H](C(N)=O)[C@@H](C)O)NC1=O` [D-Phe-L-Cys(1)-L-Tyr-D-Trp-L-Lys-L-Abu-L-Cys(1)-L-Thr-NH2], the results for the Ki in experiment [4] and in experiment [2] were 1000 nM and 8.2 nM, respectively.

For the compound `CC(C)[C@H](NC(=O)[C@H](CCCCN)NC(=O)[C@@H](Cc1c[nH]c2ccccc12)NC(=O)[C@H](Cc1ccc(O)cc1)NC(=O)[C@H](Cc1ccccc1)NC(=O)[C@H](N)Cc1ccccc1)C(=O)N[C@@H](Cc1ccccc1)C(=O)N[C@H](Cc1ccccc1)C(N)=O` [D-Phe-Phe-Tyr-D-Trp-Lys-Val-Phe-D-Phe-NH2] (H-[dF]FY[dW]KVF[dF]-NH2), the Ki in experiment [4] amounted to 500 nM; in experiment [3] it was 1000 nM.

As to `CC(O)C1NC(=O)C(CCCCN)NC(=O)C(Cc2c[nH]c3ccccc23)NC(=O)C(Cc2ccccc2)NC(=O)C(NC(=O)C(N)Cc2ccccc2)CSSCC(C(=O)NCc2cccc3ccccc23)NC1=O` (stereo not drawn) [EC5-21] (H-FCFWKTC-{NH(1-naphthylmethyl)}; disulfide 2-7; configuration not given here), the Ki in experiment [4] worked out at 207 nM; in experiment [3], 0.028 nM; in experiment [2], 69 nM.

In the case of `CC(C)[C@H](NC(=O)[C@H](CCCCN)NC(=O)[C@@H](Cc1c[nH]c2ccccc12)NC(=O)[C@H](Cc1ccc(O)cc1)NC(=O)[C@H](C)NC(=O)[C@H](N)Cc1ccccc1)C(=O)N[C@@H](C)C(=O)N[C@@H](Cc1ccc2ccccc2c1)C(N)=O` [L-Alaninamide,D-phenylalanyl-L-alanyl-L-tyrosyl-D-tryptophyl-L-lysyl-L-valyl-L-alanyl-3-(2-naphthalenyl)-(9CI)] (H-[dF]AY[dW]KVA[2Nal]-NH2), the results for the Ki in experiment [4] and in experiment [3] were 1000 nM and 8.3 nM, respectively.
